Data on 2 compounds can be found in patent US6866858B2, “Method and compositions for attracting mosquitoes” (BioSensory, Inc., priority 2000, dated 2005).

Values joined by “and” are separate entries in the source; they are usually repeats but may differ in a detail not shown here. Equal values may be shown once.

For this experiment, the system named is Aedes taeniorhyncus mosquitoes. Briefly: Outdoor screened cage mosquito capture test with CO2 collection jar and attractant. It counts as in vivo. Conditions: for Average captured: average of three replicate tests; for Average captured / Total captured: 250 μL attractant + 500 cc/min CO2, 1000 mosquitoes per test; for Mosquitoes captured: single replicate test, 250 μL attractant on fibrous absorbent in CFG 6 jar with 500 cc/min CO2, 1000 mosquitoes introduced, after several hours; for Total captured: sum of three replicate tests; for Average increase in capture over control: versus CO2-only control (average 334 captured). On the procedure:
The following tests were conducted by the United States Department of Agriculture in Florida in a large outdoor screened cage of a size of approximately 30 ft.×60 ft.×20 ft. (9.144×18.288×6.096 meters). Into approximately the center of the base of the cage was placed a CFG 6 Collection Jar of American Biophysics providing 500 cc/min CO2. Also placed in the CFG-6 Jar was a fibrous absorbent into which had been absorbed 250 μL of the test attractant compound. There were then introduced into the cage, from the periphery thereof, 1000 Aedes taeniorhyncus mosquitoes. After a period of several hours the collection jar was examined to determine the number of mosquitoes captured. As controls, similar tests were run with the CF 6 Collection jar without any attractant compound, i.e. with only CO2. Three replicate tests were run with each test attractant compound. The compound 1-octyn-3-ol was employed as the attractant compound of this invention and 1-octenol as an example of a prior art attractant.

`C#CC(O)CCCCC` (stereo not drawn) [1-octyn-3-ol]: the Average captured entry is reported as “Average captured: 735”; the Mosquitoes captured is 779 and 599 and 826; the Total captured was found to be 2204; the “Average increase in capture over control” value is recorded as “Average increase in capture over control: 401”. Also, the “more mosquitoes captured than the prior art 1-octen-3-ol attractant” value (compared with 1-octen-3-ol in the same test) is reported as “over 71%”.
Turning to `C=CC(O)CCCCC` (stereo not drawn) [1-octen-3-ol, reference compound], the Average captured result is “Average captured: 568”; the Mosquitoes captured was 624 and 560 and 520; the Total captured was 1704; the “Average increase in capture over control” value was “Average increase in capture over control: 234”.
